In ChEMBL document CHEMBL1275409, “Antimicrobial-resistant pathogens in intensive care units in Canada: results of the Canadian National Intensive Care Unit (CAN-ICU) study, 2005-2006” (2008):

Legend:
Assay type in all cases: functional
[1] = tested on: Staphylococcus aureus; assay: Antimicrobial activity against methicillin-resistant Staphylococcus aureus isolated from ICU patient respiratory tract assessed as resistant isolates by broth microdilution method
[2] = tested on: Staphylococcus aureus; assay: Antimicrobial activity against methicillin-resistant Staphylococcus aureus isolated from ICU patient wound assessed as resistant isolates by broth microdilution method
[3] = tested on: Staphylococcus aureus; assay: Antimicrobial activity against methicillin-resistant Staphylococcus aureus isolated from ICU patient urine assessed as resistant isolates by broth microdilution method
[4] = tested on: Staphylococcus aureus; assay: Antimicrobial activity against methicillin-resistant Staphylococcus aureus isolated from ICU patient blood assessed as resistant isolates by broth microdilution method
[5] = tested on: Staphylococcus aureus; assay: Antimicrobial activity against methicillin-resistant Staphylococcus aureus assessed as resistant isolates by broth microdilution method
[6] = tested on: Staphylococcus aureus; assay: Antimicrobial activity against methicillin-susceptible Staphylococcus aureus isolated from ICU patient respiratory tract assessed as resistant isolates by broth microdilution method
[7] = tested on: Staphylococcus aureus; assay: Antimicrobial activity against methicillin-susceptible Staphylococcus aureus isolated from ICU patient wound assessed as resistant isolates by broth microdilution method
[8] = tested on: Staphylococcus aureus; assay: Antimicrobial activity against methicillin-susceptible Staphylococcus aureus isolated from ICU patient urine assessed as resistant isolates by broth microdilution method
[9] = tested on: Staphylococcus aureus; assay: Antimicrobial activity against methicillin-susceptible Staphylococcus aureus isolated from ICU patient blood assessed as resistant isolates by broth microdilution method
[10] = tested on: Staphylococcus aureus; assay: Antimicrobial activity against methicillin-susceptible Staphylococcus aureus assessed as resistant isolates by broth microdilution method
[11] = tested on: Enterobacter cloacae; assay: Antimicrobial activity against carbapenem-resistant Enterobacter cloacae isolated from ICU patient respiratory tract assessed as resistant isolates by broth microdilution method
[12] = tested on: Haemophilus influenzae; assay: Antimicrobial activity against Haemophilus influenzae assessed as resistant isolates by broth microdilution method
[13] = tested on: Haemophilus influenzae; assay: Antimicrobial activity against Haemophilus influenzae isolated from ICU patient blood assessed as resistant isolates by broth microdilution method
[14] = tested on: Haemophilus influenzae; assay: Antimicrobial activity against Haemophilus influenzae isolated from ICU patient wound assessed as resistant isolates by broth microdilution method
[15] = tested on: Haemophilus influenzae; assay: Antimicrobial activity against Haemophilus influenzae isolated from ICU patient respiratory tract assessed as resistant isolates by broth microdilution method
[16] = tested on: Enterobacter cloacae; assay: Antimicrobial activity against carbapenem-resistant Enterobacter cloacae isolated from ICU patient wound assessed as resistant isolates by broth microdilution method
[17] = tested on: Enterobacter cloacae; assay: Antimicrobial activity against carbapenem-resistant Enterobacter cloacae isolated from ICU patient urine assessed as resistant isolates by broth microdilution method
[18] = tested on: Enterobacter cloacae; assay: Antimicrobial activity against carbapenem-resistant Enterobacter cloacae isolated from ICU patient blood assessed as resistant isolates by broth microdilution method
[19] = tested on: Enterobacter cloacae; assay: Antimicrobial activity against carbapenem-resistant Enterobacter cloacae assessed as resistant isolates by broth microdilution method
[20] = tested on: Pseudomonas aeruginosa; assay: Antimicrobial activity against carbapenem-resistant Pseudomonas aeruginosa isolated from ICU patient respiratory tract assessed as resistant isolates by broth microdilution method
[21] = tested on: Pseudomonas aeruginosa; assay: Antimicrobial activity against carbapenem-resistant Pseudomonas aeruginosa isolated from ICU patient wound assessed as resistant isolates by broth microdilution method
[22] = tested on: Pseudomonas aeruginosa; assay: Antimicrobial activity against carbapenem-resistant Pseudomonas aeruginosa isolated from ICU patient urine assessed as resistant isolates by broth microdilution method
[23] = tested on: Pseudomonas aeruginosa; assay: Antimicrobial activity against carbapenem-resistant Pseudomonas aeruginosa isolated from ICU patient blood assessed as resistant isolates by broth microdilution method
[24] = tested on: Pseudomonas aeruginosa; assay: Antimicrobial activity against carbapenem-resistant Pseudomonas aeruginosa assessed as resistant isolates by broth microdilution method
[25] = tested on: Klebsiella pneumoniae; assay: Antimicrobial activity against ESBL producing Klebsiella pneumoniae isolated from ICU patient respiratory tract assessed as resistant isolates by broth microdilution method
[26] = tested on: Klebsiella pneumoniae; assay: Antimicrobial activity against ESBL producing Klebsiella pneumoniae isolated from ICU patient wound assessed as resistant isolates by broth microdilution method
[27] = tested on: Klebsiella pneumoniae; assay: Antimicrobial activity against ESBL producing Klebsiella pneumoniae isolated from ICU patient urine assessed as resistant isolates by broth microdilution method
[28] = tested on: Klebsiella pneumoniae; assay: Antimicrobial activity against ESBL producing Klebsiella pneumoniae isolated from ICU patient blood assessed as resistant isolates by broth microdilution method
[29] = tested on: Klebsiella pneumoniae; assay: Antimicrobial activity against ESBL producing Klebsiella pneumoniae assessed as resistant isolates by broth microdilution method
[30] = tested on: Escherichia coli; assay: Antimicrobial activity against CTX-M ESBL producing Escherichia coli isolated from ICU patient respiratory tract assessed as resistant isolates by broth microdilution method
[31] = tested on: Escherichia coli; assay: Antimicrobial activity against CTX-M ESBL producing Escherichia coli isolated from ICU patient wound assessed as resistant isolates by broth microdilution method
[32] = tested on: Escherichia coli; assay: Antimicrobial activity against CTX-M ESBL producing Escherichia coli isolated from ICU patient urine assessed as resistant isolates by broth microdilution method
[33] = tested on: Escherichia coli; assay: Antimicrobial activity against CTX-M ESBL producing Escherichia coli isolated from ICU patient blood assessed as resistant isolates by broth microdilution method
[34] = tested on: Escherichia coli; assay: Antimicrobial activity against CTX-M ESBL producing Escherichia coli assessed as resistant isolates by broth microdilution method
[35] = tested on: Streptococcus pneumoniae; assay: Antimicrobial activity against penicillin-resistant Streptococcus pneumoniae isolated from ICU patient respiratory tract assessed as resistant isolates by broth microdilution method
[36] = tested on: Streptococcus pneumoniae; assay: Antimicrobial activity against penicillin-resistant Streptococcus pneumoniae isolated from ICU patient wound assessed as resistant isolates by broth microdilution method
[37] = tested on: Streptococcus pneumoniae; assay: Antimicrobial activity against penicillin-resistant Streptococcus pneumoniae isolated from ICU patient blood assessed as resistant isolates by broth microdilution method
[38] = tested on: Streptococcus pneumoniae; assay: Antimicrobial activity against penicillin-resistant Streptococcus pneumoniae assessed as resistant isolates by broth microdilution method
[39] = tested on: Staphylococcus epidermidis; assay: Antimicrobial activity against methicillin-resistant Staphylococcus epidermidis isolated from ICU patient wound assessed as resistant isolates by broth microdilution method
[40] = tested on: Staphylococcus epidermidis; assay: Antimicrobial activity against methicillin-resistant Staphylococcus epidermidis isolated from ICU patient urine assessed as resistant isolates by broth microdilution method
[41] = tested on: Staphylococcus epidermidis; assay: Antimicrobial activity against methicillin-resistant Staphylococcus epidermidis isolated from ICU patient blood assessed as resistant isolates by broth microdilution method
[42] = tested on: Staphylococcus epidermidis; assay: Antimicrobial activity against methicillin-resistant Staphylococcus epidermidis assessed as resistant isolates by broth microdilution method
[43] = tested on: Staphylococcus epidermidis; assay: Antimicrobial activity against methicillin-susceptible Staphylococcus epidermidis isolated from ICU patient respiratory tract assessed as resistant isolates by broth microdilution method
[44] = tested on: Staphylococcus epidermidis; assay: Antimicrobial activity against methicillin-susceptible Staphylococcus epidermidis isolated from ICU patient wound assessed as resistant isolates by broth microdilution method
[45] = tested on: Staphylococcus epidermidis; assay: Antimicrobial activity against methicillin-susceptible Staphylococcus epidermidis isolated from ICU patient urine assessed as resistant isolates by broth microdilution method
[46] = tested on: Staphylococcus epidermidis; assay: Antimicrobial activity against methicillin-susceptible Staphylococcus epidermidis isolated from ICU patient blood assessed as resistant isolates by broth microdilution method
[47] = tested on: Staphylococcus epidermidis; assay: Antimicrobial activity against methicillin-susceptible Staphylococcus epidermidis assessed as resistant isolates by broth microdilution method
[48] = tested on: Enterococcus sp.; assay: Antimicrobial activity against vancomycin-resistant Enterococcus sp. isolated from ICU patient respiratory tract assessed as resistant isolates by broth microdilution method
[49] = tested on: Enterococcus sp.; assay: Antimicrobial activity against vancomycin-resistant Enterococcus sp. isolated from ICU patient wound assessed as resistant isolates by broth microdilution method
[50] = tested on: Enterococcus sp.; assay: Antimicrobial activity against vancomycin-resistant Enterococcus sp. isolated from ICU patient urine assessed as resistant isolates by broth microdilution method
[51] = tested on: Enterococcus sp.; assay: Antimicrobial activity against vancomycin-resistant Enterococcus sp. assessed as resistant isolates by broth microdilution method
[52] = tested on: Enterococcus sp.; assay: Antimicrobial activity against vancomycin-resistant Enterococcus sp. isolated from ICU patient blood assessed as resistant isolates by broth microdilution method

For `CO/N=C(\C(=O)N[C@@H]1C(=O)N2C(C(=O)O)=C(CSc3nc(=O)c(O)nn3C)CS[C@H]12)c1csc(N)n1` [CEFTRIAXONE], the Activity [1] was 100%, the Activity [2] was 100% and the Activity [3] was 100%. For the same compound, the Activity [4] was 100%, the Activity [5] was 100% and the Activity [6] was 0%. It also gave an Activity [7] of 0%, an Activity [8] of 0% and an Activity [9] of 0%. It also gave an Activity [10] of 0%, an Activity [11] of 10.2% and an Activity [12] of 0.3%. It also gave an Activity [13] of 0%, an Activity [14] of 0% and an Activity [15] of 0.3%. It also gave an Activity [16] of 5.9%, an Activity [17] of 25% and an Activity [18] of 29.2%. The Activity [19] was 13.9%, the Activity [20] was 27% and the Activity [21] was 30.2%. For the same compound, the Activity [22] was 33.3%, the Activity [23] was 51.5% and the Activity [24] was 30%. The Activity [25] was 0%, the Activity [26] was 3.9% and the Activity [27] was 0%. For the same compound, the Activity [28] was 0%, the Activity [29] was 0.4% and the Activity [30] was 2.5%. It also gave an Activity [31] of 1.7%, an Activity [32] of 4.2% and an Activity [33] of 5.5%. For the same compound, the Activity [34] was 3.7%, the Activity [35] was 0% and the Activity [36] was 0%. It also gave an Activity [37] of 0%, an Activity [38] of 0% and an Activity [39] of 100%. The Activity [40] was 100%, the Activity [41] was 100% and the Activity [42] was 100%. It also gave an Activity [43] of 0%, an Activity [44] of 25% and an Activity [45] of 0%. For the same compound, the Activity [46] was 1.8% and the Activity [47] was 8.1%.
With `C[C@H]1COc2c(N3CCN(C)CC3)c(F)cc3c(=O)c(C(=O)O)cn1c23.C[C@H]1COc2c(N3CCN(C)CC3)c(F)cc3c(=O)c(C(=O)O)cn1c23.O` [LEVOFLOXACIN] the Activity [1] was 91.5%, the Activity [2] was 92.6% and the Activity [3] was 100%. It also gave an Activity [4] of 91.8%, an Activity [5] of 91.8% and an Activity [6] of 6.9%. It also gave an Activity [7] of 7.1%, an Activity [8] of 20% and an Activity [9] of 6.9%. The Activity [10] was 7.3%, the Activity [11] was 0% and the Activity [12] was 0%. The Activity [13] was 0%, the Activity [14] was 0% and the Activity [15] was 0%. For the same compound, the Activity [16] was 5.9%, the Activity [17] was 6.3% and the Activity [18] was 4.2%. For the same compound, the Activity [19] was 1.8%, the Activity [20] was 3.3% and the Activity [21] was 11.5%. For the same compound, the Activity [22] was 0%, the Activity [23] was 3.9% and the Activity [24] was 3.6%. The Activity [25] was 21.5%, the Activity [27] was 40% and the Activity [28] was 24.2%. It also gave an Activity [29] of 25.5%, an Activity [30] of 21.3% and an Activity [31] of 24.1%. The Activity [32] was 19.8%, the Activity [33] was 23.3% and the Activity [34] was 21.1%. The Activity [48] was 46.7%, the Activity [49] was 45.8% and the Activity [50] was 52%. It also gave an Activity [51] of 51%, an Activity [52] of 56.8% and an Activity [35] of 2.1%. The Activity [36] was 0%, the Activity [37] was 0% and the Activity [38] was 1.7%. It also gave an Activity [39] of 100%, an Activity [40] of 100% and an Activity [41] of 100%. It also gave an Activity [42] of 100%, an Activity [43] of 100% and an Activity [44] of 66.7%. It also gave an Activity [45] of 80%, an Activity [46] of 42.9% and an Activity [47] of 52.3%.
Compound `C[C@@H](O)[C@H]1C(=O)N2C(C(=O)O)=C(S[C@@H]3CN[C@H](C(=O)N(C)C)C3)[C@H](C)[C@H]12` [MEROPENEM] has an Activity [1] of 100%, an Activity [2] of 100% and an Activity [3] of 100%. The Activity [4] was 100%, the Activity [5] was 100% and the Activity [6] was 0%. It also gave an Activity [7] of 0%, an Activity [8] of 0% and an Activity [9] of 0%. The Activity [10] was 0%, the Activity [11] was 0% and the Activity [12] was 0%. For the same compound, the Activity [13] was 0%, the Activity [14] was 0% and the Activity [15] was 0%. For the same compound, the Activity [16] was 0%, the Activity [17] was 0% and the Activity [18] was 0%. It also gave an Activity [19] of 0%, an Activity [20] of 0% and an Activity [21] of 0%. It also gave an Activity [22] of 0%, an Activity [23] of 0% and an Activity [24] of 0%. The Activity [25] was 12.5%, the Activity [26] was 18.9% and the Activity [27] was 17.8%. For the same compound, the Activity [28] was 9.1%, the Activity [29] was 13.6% and the Activity [30] was 0%. It also gave an Activity [31] of 0%, an Activity [32] of 0% and an Activity [33] of 0%. It also gave an Activity [34] of 0%, an Activity [35] of 0.5% and an Activity [36] of 0%. The Activity [37] was 0%, the Activity [38] was 0.4% and the Activity [39] was 100%. It also gave an Activity [40] of 100%, an Activity [41] of 100% and an Activity [42] of 100%. It also gave an Activity [43] of 0%, an Activity [44] of 29.2% and an Activity [45] of 0%. The Activity [46] was 1.8% and the Activity [47] was 9.3%.
